Results taken from ChEMBL document CHEMBL1833831, “In vivo anti-inflammatory and antioxidant properties of ellagitannin metabolite urolithin A” (Bioorg Med Chem Lett, 2011).
The source made the active and inactive calls. The rule behind the calls is not given here.

Key:
[1] = test system: Plasma; assay: Drug level in ICR mouse plasma assessed as free compound level after 1 hr in presence of beta-glucuronidase by HPLC-ESI-MS/MS analysis; assay type: ADME, cell-free
[2] = test system: Plasma; assay: Drug level in ICR mouse plasma assessed as free compound level after 6 hrs in presence of beta-glucuronidase by HPLC-ESI-MS/MS analysis relative to total compound level; assay type: ADME, cell-free
[3] = test system: Plasma; assay: Drug level in ICR mouse plasma assessed as free compound level after 6 hrs in presence of beta-glucuronidase by HPLC-ESI-MS/MS analysis; assay type: ADME, cell-free
[4] = test system: Mus musculus; assay: Antiinflammatory activity against carrageenan-induced paw edema in ICR mouse at 300 mg/kg, po administered 1 hr before carrageenan challenge measured after 3 hrs by plethysmometer relative to control; assay type: functional
[5] = Drug level in human plasma after 0.5 hrs; assay type: ADME, cell-free
[6] = Drug level in human plasma after 6 hrs; assay type: ADME, cell-free
[7] = test system: Mus musculus; assay: Antioxidant activity against AAPH-induced lipid peroxidation in ICR mouse assessed as decrease in ORAC score in plasma at 300 mg/kg, po after 6 hr relative to control; assay type: functional; set-up: scale not given: the % may be the effect or the level left
[8] = test system: Mus musculus; assay: Antiinflammatory activity against carrageenan-induced paw edema in ICR mouse at 300 mg/kg, po administered 6 hr before carrageenan challenge measured after 3 to 24 hrs by plethysmometer; assay type: functional, organism-based; set-up: dose 300 mg/kg
[9] = test system: Mus musculus; assay: Antiinflammatory activity against carrageenan-induced paw edema in ICR mouse at 300 mg/kg, po administered 1 hr before carrageenan challenge measured after 6 hrs by plethysmometer relative to control; assay type: functional
[10] = test system: Mus musculus; assay: Antiinflammatory activity against carrageenan-induced paw edema in ICR mouse at 300 mg/kg, po administered 1 hr before carrageenan challenge measured after 24 hrs by plethysmometer relative to control; assay type: functional
[11] = test system: Plasma; assay: Drug level in ICR mouse plasma assessed as free compound level after 1 hr in presence of beta-glucuronidase by HPLC-ESI-MS/MS analysis relative to total compound level; assay type: ADME, cell-free
[12] = test system: Mus musculus; assay: Antioxidant activity against AAPH-induced lipid peroxidation in ICR mouse assessed as increase in ORAC score in plasma at 300 mg/kg, po after 1 hr relative to control; assay type: functional
[13] = Drug level in rat plasma at 5 mg after 6 hrs; assay type: ADME, cell-free

SMILES | Cp(f) [1] [nM] | Cp(f) [2] [%] | Cp(f) [3] [nM] | Activity [4] [%] | concentration at 0.5 h [5] [nM] | concentration at 6 h [6] [nM] | Activity [7] [%] | Activity [8] | Activity [9] [%] | Activity [10] [%] | Cp(f) [11] [%] | Activity [12] [%] | concentration at 6 h [13] [nM]
O=c1oc2cc(O)ccc2c2ccc(O)cc12 | 2850 | 65.7 | 830 | 35 | 40 | 110 | 118 | inactive | 26 | 34 | 77.2 | 142 | 
O=C1O[C@H]2[C@@H]3OC(=O)c4cc(O)c(O)c(O)c4-c4c(cc(O)c(O)c4O)C(=O)OC[C@H]2O[C@@H](OC(=O)c2cc(O)c(O)c(O)c2)[C@@H]3OC(=O)c2cc(O)c(O)c3c2[C@@H]2C1=CC(=O)[C@](O)(O3)C2(O)O [GERANIIN] |  |  |  |  |  |  |  |  |  |  |  |  | 450
